Test [1] relates to Canis familiaris. The experiment in a line: 50% reduction in agonist induced pressor response in anesthetized dog. Type of test: functional. The conditions noted are these: Canis lupus familiaris; read-out: ID50 (the source's name).
Test [2] has as its target T1, Alpha-1D adrenergic receptor (Homo sapiens, UniProt P25100).
T1 sequence (P25100 whole entry): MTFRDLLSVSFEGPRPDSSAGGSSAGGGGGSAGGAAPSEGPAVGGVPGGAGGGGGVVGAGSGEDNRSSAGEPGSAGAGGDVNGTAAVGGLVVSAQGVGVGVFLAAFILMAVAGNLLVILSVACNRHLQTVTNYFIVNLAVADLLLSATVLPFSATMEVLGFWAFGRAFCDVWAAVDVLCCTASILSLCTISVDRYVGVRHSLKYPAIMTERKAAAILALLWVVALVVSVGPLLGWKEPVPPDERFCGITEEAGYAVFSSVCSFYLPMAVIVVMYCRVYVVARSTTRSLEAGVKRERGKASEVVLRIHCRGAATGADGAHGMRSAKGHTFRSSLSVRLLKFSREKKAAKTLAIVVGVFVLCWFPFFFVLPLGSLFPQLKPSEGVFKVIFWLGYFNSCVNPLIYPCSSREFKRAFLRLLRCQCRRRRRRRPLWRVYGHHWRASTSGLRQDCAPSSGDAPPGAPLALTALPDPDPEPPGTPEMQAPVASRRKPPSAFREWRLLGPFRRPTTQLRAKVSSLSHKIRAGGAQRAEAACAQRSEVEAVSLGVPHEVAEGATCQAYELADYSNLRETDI
The experiment in a line: Binding affinity was tested on human Alpha-1D adrenergic receptor.

Test [3] concerns Canis familiaris. Nature of the test: 50% reduction in intraurethral pressure (IUP) in response to hypogastric nerve stimulation or agonist (phenylephrine or norepinephrine) administration in anesthetized dog. The note with it: Canis lupus familiaris; read-out: ID50 (the source's name). Type of test: functional.
Test [4] in a line: Apparent binding affinity on human 5-alpha reductase isozyme.
The target of test [5] is T2, Alpha-1A adrenergic receptor (Homo sapiens, UniProt P35348).
T2 sequence (P35348 whole entry): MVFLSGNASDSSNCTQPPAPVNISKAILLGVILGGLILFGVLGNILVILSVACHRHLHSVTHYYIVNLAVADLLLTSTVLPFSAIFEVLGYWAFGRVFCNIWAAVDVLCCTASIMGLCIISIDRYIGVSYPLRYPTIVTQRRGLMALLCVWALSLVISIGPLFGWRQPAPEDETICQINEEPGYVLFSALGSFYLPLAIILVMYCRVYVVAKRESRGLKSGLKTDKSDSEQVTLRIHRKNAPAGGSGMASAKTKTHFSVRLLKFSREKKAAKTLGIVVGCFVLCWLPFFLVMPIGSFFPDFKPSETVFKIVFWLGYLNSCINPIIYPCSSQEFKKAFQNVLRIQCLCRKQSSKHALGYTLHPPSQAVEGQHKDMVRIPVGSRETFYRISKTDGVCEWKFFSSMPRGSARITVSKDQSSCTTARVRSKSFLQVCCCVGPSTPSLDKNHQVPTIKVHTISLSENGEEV
The experiment in a line: Binding affinity was tested on human Alpha-1A adrenergic receptor.

Test [6] deals with T3, Alpha-1B adrenergic receptor (Homo sapiens, UniProt P35368).
T3 sequence (P35368 whole entry): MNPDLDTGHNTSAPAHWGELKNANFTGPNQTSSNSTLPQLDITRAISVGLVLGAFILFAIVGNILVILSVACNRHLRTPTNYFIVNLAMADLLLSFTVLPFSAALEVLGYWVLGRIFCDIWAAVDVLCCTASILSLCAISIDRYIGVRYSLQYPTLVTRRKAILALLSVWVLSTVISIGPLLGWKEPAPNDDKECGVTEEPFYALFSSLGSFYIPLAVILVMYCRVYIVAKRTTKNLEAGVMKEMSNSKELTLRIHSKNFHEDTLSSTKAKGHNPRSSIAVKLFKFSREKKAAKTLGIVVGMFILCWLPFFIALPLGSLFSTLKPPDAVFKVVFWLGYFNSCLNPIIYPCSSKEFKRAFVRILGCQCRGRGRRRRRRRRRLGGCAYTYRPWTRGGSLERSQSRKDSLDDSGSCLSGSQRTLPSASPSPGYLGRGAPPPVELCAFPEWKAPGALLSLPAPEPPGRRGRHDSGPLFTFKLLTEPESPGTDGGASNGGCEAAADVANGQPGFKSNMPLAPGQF
The experiment in a line: Binding affinity was tested on human Alpha-1B adrenergic receptor.

Test [7] addresses T4, Adrenergic receptor alpha-1 (Homo sapiens, UniProt P35348+P25100+P35368).
T4 sequence (P35348 whole entry): T2 sequence (P35348 whole entry)
T4 sequence (P25100 whole entry): T1 sequence (P25100 whole entry)
T4 sequence (P35368 whole entry): T3 sequence (P35368 whole entry)
Nature of the test: pA2 for Alpha-1 adrenergic receptor from human prostate. Type of test: tissue-based, Prostate gland.

Test [8] has as its target T5, Steroid 5-alpha-reductase (Rattus norvegicus, UniProt P24008+P31214).
T5 sequence (P24008 whole entry): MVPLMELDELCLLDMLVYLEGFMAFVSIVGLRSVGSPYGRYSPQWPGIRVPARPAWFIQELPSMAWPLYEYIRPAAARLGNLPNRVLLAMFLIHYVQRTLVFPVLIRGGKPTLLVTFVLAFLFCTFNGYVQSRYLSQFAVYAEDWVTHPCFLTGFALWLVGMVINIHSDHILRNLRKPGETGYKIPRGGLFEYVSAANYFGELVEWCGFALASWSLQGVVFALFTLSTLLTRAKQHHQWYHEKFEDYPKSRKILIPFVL
T5 sequence (P31214 whole entry): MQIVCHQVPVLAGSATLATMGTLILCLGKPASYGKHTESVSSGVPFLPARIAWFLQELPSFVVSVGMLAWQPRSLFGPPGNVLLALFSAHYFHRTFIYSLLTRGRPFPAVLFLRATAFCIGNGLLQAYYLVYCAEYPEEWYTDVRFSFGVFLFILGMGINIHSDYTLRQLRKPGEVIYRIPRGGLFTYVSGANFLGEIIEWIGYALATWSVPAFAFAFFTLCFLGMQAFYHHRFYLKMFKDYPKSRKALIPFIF
Nature of the test: Inhibition of rat 5-alpha reductase isozyme. It is filed as protein assay.

Test [9] in a line: Inhibitory concentration on human 5-alpha reductase isozyme.
The target of test [10] is T6, 3-oxo-5-alpha-steroid 4-dehydrogenase 1 (Homo sapiens, UniProt P18405).
T6 sequence (P18405 whole entry): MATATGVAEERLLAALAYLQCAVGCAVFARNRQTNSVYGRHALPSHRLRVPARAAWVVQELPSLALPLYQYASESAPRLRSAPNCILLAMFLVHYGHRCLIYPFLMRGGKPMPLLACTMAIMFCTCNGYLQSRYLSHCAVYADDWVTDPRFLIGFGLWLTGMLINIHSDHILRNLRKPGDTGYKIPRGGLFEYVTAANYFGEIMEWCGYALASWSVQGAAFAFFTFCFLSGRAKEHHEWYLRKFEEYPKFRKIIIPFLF
The experiment in a line: Inhibitory concentration was tested on human 5-alpha reductase 1 isozyme.

Test [11] concerns the target T7, 3-oxo-5-alpha-steroid 4-dehydrogenase 2 (Homo sapiens, UniProt P31213).
T7 sequence (P31213 whole entry): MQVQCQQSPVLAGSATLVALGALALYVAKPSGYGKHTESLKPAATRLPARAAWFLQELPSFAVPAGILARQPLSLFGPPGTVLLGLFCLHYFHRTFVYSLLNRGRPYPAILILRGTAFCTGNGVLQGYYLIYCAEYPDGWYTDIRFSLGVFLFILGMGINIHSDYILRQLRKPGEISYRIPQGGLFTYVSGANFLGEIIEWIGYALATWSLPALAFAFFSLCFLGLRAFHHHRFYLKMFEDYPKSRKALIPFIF
The experiment in a line: Inhibition of human 5-alpha reductase 2 isozyme.

Turning to `COc1cc2nc(N3CCN(C(=O)C4CCCO4)CC3)nc(N)c2cc1OC` (stereo not given) [TERAZOSIN], the ED50 in the test with Canis familiaris [1] worked out at 0.085 mg/kg; with Canis familiaris [3], 0.101 mg/kg. In addition, the Ki in [2] is 0.00398 µM.

In the case of `CC(C)N(C(=O)[C@H]1CCC2C3CC=C4C=C(C(=O)O)CC[C@]4(C)C3CC[C@@]21C)C(C)C` (stereo not given in full), in test [4], the Ki was 0.007 µM.

Consider `O=C(CCCN1CCC(NC(=O)c2ccccc2)CC1)c1ccccc1`, for which the Ki is 0.0158 µM in test [5], 0.2 µM in test [6] and 0.794 µM in [2]. Moreover, in [7], the pA2 (in general, a measure of antagonist potency on a negative log scale) came to 7.9.

Take `COc1cc2nc(N3CCN(C(=O)c4ccco4)CC3)nc(N)c2cc1OC` [PRAZOSIN]: the ED50 in the test on Canis familiaris [1] is 0.011 mg/kg; in the test with Canis familiaris [3], 0.012 mg/kg.

Regarding `C=Cc1sc2ccc(Cl)c3c2c1CN(C)CC3`, the Ki in test [6] is 0.02 µM; in [2], 0.00316 µM. In [7], this compound had a pA2 of 7.5.

With `CC1=C2C=C(C(=O)O)CC[C@]2(C)C2CC[C@@]3(C)C(CC[C@@H]3C(=O)c3cccc4ccccc34)C2C1` (stereo not given in full), the IC50 (in general, the point on the concentration scale where inhibition reaches its midpoint) was found to be 0.2 µM in test [8] and 0.17 µM in [9].

Regarding `CC(C)N(C(=O)[C@H]1CCC2C3CC=C4C=C([N+](=O)[O-])CC[C@]4(C)C3CC[C@@]21C)C(C)C` (stereo not given in full), in [4], the Ki was found to be 0.59 µM.

`CC(C)Cc1ccc([C@@H](C)Oc2ccc(C(=O)c3cn(CCCC(=O)O)c4ccccc34)cc2)cc1`: the IC50 was found to be 0.03 µM in test [8], 0.574 µM in [10] and 0.069 µM in test [11].

For the compound `O=C(NC1CCN(CCc2c[nH]c3ccccc23)CC1)c1ccccc1` [INDORAMIN], the results for the Ki in test [5], in [6] and in test [2] were 0.00398 µM, 0.0398 µM and 0.158 µM, respectively. The pA2 in test [7] was determined as 8.7.

Consider `CC(C)N(C(=O)C1=CCC2C3CCC4=CC(C(=O)O)=CC[C@]4(C)C3CC[C@]12C)C(C)C` (stereo not given in full), for which the figures for the IC50 in test [8] and in [9] were 0.047 µM and 0.007 µM, respectively.

As for `CCCc1ccc(OC(C)c2ccc(C(=O)c3cn(CCCC(=O)O)c4ccccc34)cc2)cc1` (stereo not given), the IC50 stood at 0.005 µM in test [8], 0.008 µM in test [10] and 0.01 µM in [11].

Regarding `CC(C)(C)NC(=O)[C@H]1CC[C@H]2[C@@H]3CC=C4C=C(C(=O)O)CC[C@]4(C)[C@H]3CC[C@]12C` [EPRISTERIDE], the concentration for half-maximal inhibition (IC50) was determined as 0.05 µM in test [8] and 0.018 µM in [9].

As to `CCOc1ccccc1OCCN[C@H](C)Cc1ccc(OC)c(S(N)(=O)=O)c1` (stereo in doubt; form 1) [TAMSULOSIN], the figures for the ED50 in the test on Canis familiaris [1] and with Canis familiaris [3] were 0.001 mg/kg and 0.002 mg/kg, respectively. The Ki in [6] is 0.00126 µM; in test [2] it was 0.000158 µM.

For `CC(C)N(C(=O)[C@H]1CCC2C3CCC4C=C([N+](=O)[O-])C=CC4(C)C3CC[C@@]21C)C(C)C` (single isomer, unassigned), the Ki in [4] is above 5 µM.

In the case of `CC(C)N(C(=O)[C@H]1CC[C@H]2[C@@H]3CC[C@H]4C(F)=C(C(=O)O)CC[C@]4(C)[C@H]3CC[C@]12C)C(C)C`, the IC50 in test [8] worked out at 0.035 µM; in [9], 0.026 µM.

As for `CC(C)N(C(=O)[C@H]1CCC2C3C=CC4=CC(C(=O)O)=CC[C@]4(C)C3CC[C@@]21C)C(C)C` (stereo not given in full), the IC50 in [8] is 0.3 µM; in [9] it was 0.012 µM.

Turning to `CC1=C(C(=O)O)CC[C@@]2(C)C1=CCC1C2CC[C@@]2(C)C1CC[C@@H]2C(=O)N(C(C)C)C(C)C` (stereo not given in full), the IC50 in [8] came out at 0.07 µM; in test [9], 0.035 µM.

For `CC(C)(Cc1c[nH]c2ccc(Cl)cc12)NCCOc1ccccc1OCC1CC1`, the Ki was 0.000631 µM in test [5], 0.0158 µM in test [6] and 0.0158 µM in test [2]. Further, the pA2 in test [7] was determined as 7.3.

Regarding `CC(C)N(C(=O)[C@H]1CCC2C3CCC4C=C([N+](=O)[O-])CC[C@]4(C)C3CC[C@@]21C)C(C)C` (stereo not given in full), the Ki in test [4] stood at 0.05 µM.

For `COc1ccccc1N1CCN(CCCNc2c(C)c(=O)n(C)c(=O)n2C)CC1`, the values for the Ki in test [5], in [6] and in [2] were 0.000631 µM, 0.0398 µM and 0.01 µM, respectively. For the same compound, the pA2 in test [7] was determined as 8.2.
